Measurements taken from US12723063B2, “GIPR-agonist compounds” (Eli Lilly and Company, priority 2019, dated 2026).
*1 amine or outer side, *2 acyl side, *3 side chain or, on linkers, in order; H or OH if unused. Where a SMILES comes first, the peptide text is derived from it. Side-chain parts run from the residue outwards. [ ]: non-standard residue; d: D form. The star is where a group is joined. C20 diacid = O=C(O)CCCCCCCCCCCCCCCCCCC(=O)*; C18 diacid = O=C(O)CCCCCCCCCCCCCCCCC(=O)*; αMePhe(2-F) = C[C@](N)(Cc1ccccc1F)C(=O)O; γGlu = O=C(O)[C@H](CCC(=O)[*:2])N[*:1]; 4Pal = N[C@@H](Cc1ccncc1)C(=O)O; αMeL = CC(C)C[C@](C)(N)C(=O)O; Iva = CC[C@](C)(N)C(=O)O; Orn = NCCC[C@H](N)C(=O)O; AEEA = NCCOCCOCC(=O)O; Aib = CC(C)(N)C(=O)O

Legend:
human GcgR = molecular target: T1, human GcgR (Homo sapiens, UniProt P47871); assay: [125I]-Glucagon binding, SPA with WGA beads, 0.1% bacitracin; details: geometric mean, read-out: hGcgR Ki
T1 construct: expressed in transfected cells; crude membranes
T1 sequence (P47871 26-477): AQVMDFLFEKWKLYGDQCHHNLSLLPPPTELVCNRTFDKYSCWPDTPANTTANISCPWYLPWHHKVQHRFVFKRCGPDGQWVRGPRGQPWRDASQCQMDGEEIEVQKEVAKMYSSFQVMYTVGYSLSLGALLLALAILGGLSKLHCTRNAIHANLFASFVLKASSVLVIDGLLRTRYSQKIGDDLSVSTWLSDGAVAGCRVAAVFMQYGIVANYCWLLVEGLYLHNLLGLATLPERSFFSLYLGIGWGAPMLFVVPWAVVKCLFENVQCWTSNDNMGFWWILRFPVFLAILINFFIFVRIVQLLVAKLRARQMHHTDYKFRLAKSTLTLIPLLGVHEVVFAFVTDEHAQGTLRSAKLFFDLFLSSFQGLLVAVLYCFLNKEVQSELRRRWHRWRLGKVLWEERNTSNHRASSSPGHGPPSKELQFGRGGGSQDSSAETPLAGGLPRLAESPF
How it was run: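 SPA competition binding with WGA beads on crude membranes from HEK293 cells stably expressing hGcgR. Buffer: 25 mM HEPES pH 7.4, 2.5 mM CaCl2, 1 mM MgCl2, 0.1% bacitracin, 0.003% Tween-20; 10-point 3-fold dilutions, NSB with 1 μM Gcg.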

[1] = molecular target: T2, human GLP-1 receptor (GLP-1R) (Homo sapiens, UniProt P43220); assay: cAMP functional assay (HTRF) in HEK293 cells in presence of 0.1% casein; type: cell-based; details: HEK293 cells expressing human GLP-1R, geometric mean, read-out: hGLP1R cAMP Rel EC50 nM (SEM, n)
T2 construct: expressed in transfected cells; host or cells: HEK293
T2 sequence (P43220 24-463): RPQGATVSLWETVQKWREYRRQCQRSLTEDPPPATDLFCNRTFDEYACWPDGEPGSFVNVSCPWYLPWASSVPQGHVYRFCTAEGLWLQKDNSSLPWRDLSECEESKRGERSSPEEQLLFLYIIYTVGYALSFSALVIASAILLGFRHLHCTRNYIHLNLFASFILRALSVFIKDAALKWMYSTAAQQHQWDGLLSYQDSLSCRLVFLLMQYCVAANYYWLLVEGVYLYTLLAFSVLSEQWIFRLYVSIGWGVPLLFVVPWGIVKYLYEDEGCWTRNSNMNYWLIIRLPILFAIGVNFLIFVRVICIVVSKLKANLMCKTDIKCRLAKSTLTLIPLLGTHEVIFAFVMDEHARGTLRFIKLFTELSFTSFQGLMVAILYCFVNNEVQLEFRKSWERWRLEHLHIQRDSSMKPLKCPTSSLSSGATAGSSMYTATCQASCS

[2] = molecular target: T3, human glucagon receptor (GcgR) (Homo sapiens, UniProt P47871); assay: as above; type: cell-based; details: HEK293 cells expressing human GcgR, geometric mean, read-out: hGcgR cAMP Rel EC50 nM (SEM, n)
T3 construct: expressed in transfected cells; host or cells: HEK293
T3 sequence (P47871 26-477): as the sequence (P47871 26-477) above

CC[C@H](C)[C@H](NC(=O)[C@H](CCCN)NC(=O)[C@H](CC(=O)O)NC(=O)[C@H](CC(C)C)NC(=O)[C@](C)(CC(C)C)NC(=O)[C@@H](NC(=O)[C@H](CO)NC(=O)[C@H](Cc1ccc(O)cc1)NC(=O)[C@H](CC(=O)O)NC(=O)[C@H](CO)NC(=O)[C@@H](NC(=O)[C@H](Cc1ccccc1)NC(=O)[C@@H](NC(=O)CNC(=O)[C@H](CCC(=O)O)NC(=O)C(C)(C)NC(=O)[C@@H](N)Cc1ccc(O)cc1)[C@@H](C)O)[C@@H](C)CC)[C@@H](C)CC)C(=O)N[C@@H](Cc1c[nH]cn1)C(=O)N[C@@H](CCC(N)=O)C(=O)NC(C)(C)C(=O)N[C@@H](CC(=O)O)C(=O)N[C@@H](Cc1ccccc1)C(=O)N[C@H](C(=O)N[C@@H](CCC(=O)O)C(=O)N[C@@H](Cc1ccncc1)C(=O)N[C@@H](CCCCNC(=O)COCCOCCNC(=O)COCCOCCNC(=O)CC[C@H](NC(=O)CCCCCCCCCCCCCCCCCCC(=O)O)C(=O)O)C(=O)N[C@@H](CC(C)C)C(=O)N[C@@H](CCC(=O)O)C(=O)NCC(=O)NCC(=O)N1CCC[C@H]1C(=O)N[C@@H](CO)C(=O)N[C@@H](CO)C(=O)NCC(=O)N[C@@H](C)C(=O)N1CCC[C@H]1C(=O)N1CCC[C@H]1C(=O)N1CCC[C@H]1C(=O)N[C@@H](CO)C(N)=O)C(C)C [Example 108] (H-Y[Aib]EGTFISDYSI[αMeL]LD[Orn]IHQ[Aib]DFVE[4Pal]K([AEEA-AEEA-γGlu-C20 diacid])LEGGPSSGAPPPS-NH2)
Ki (human GcgR): > 0.96 µM | EC50 [1]: > 5000 nM | EC50 [2]: > 5000 nM

CC[C@H](C)[C@H](NC(=O)[C@H](CCCN)NC(=O)[C@H](CC(=O)O)NC(=O)[C@H](CC(C)C)NC(=O)[C@](C)(CC(C)C)NC(=O)[C@@H](NC(=O)[C@H](CO)NC(=O)[C@H](Cc1ccc(O)cc1)NC(=O)[C@H](CC(=O)O)NC(=O)[C@H](CO)NC(=O)[C@@H](NC(=O)[C@H](Cc1ccccc1)NC(=O)[C@@H](NC(=O)CNC(=O)[C@H](CCC(=O)O)NC(=O)C(C)(C)NC(=O)[C@@H](N)Cc1ccc(O)cc1)[C@@H](C)O)[C@@H](C)CC)[C@@H](C)CC)C(=O)N[C@@H](Cc1c[nH]cn1)C(=O)N[C@@H](CCC(N)=O)C(=O)NC(C)(C)C(=O)N[C@@H](CCC(=O)O)C(=O)N[C@@H](Cc1ccccc1)C(=O)N[C@H](C(=O)N[C@@H](CCC(=O)O)C(=O)N[C@@H](Cc1ccncc1)C(=O)N[C@@H](CCCCNC(=O)COCCOCCNC(=O)COCCOCCNC(=O)CC[C@H](NC(=O)CCCCCCCCCCCCCCCCCCC(=O)O)C(=O)O)C(=O)N[C@@H](CC(C)C)C(=O)N[C@@H](CCC(=O)O)C(=O)N[C@@H](C)C(=O)NCC(=O)N1CCC[C@H]1C(=O)N[C@@H](CO)C(=O)N[C@@H](CO)C(=O)NCC(=O)N[C@@H](C)C(=O)N1CCC[C@H]1C(=O)N1CCC[C@H]1C(=O)N1CCC[C@H]1C(=O)N[C@@H](CO)C(N)=O)C(C)C [Example 122] (H-Y[Aib]EGTFISDYSI[αMeL]LD[Orn]IHQ[Aib]EFVE[4Pal]K([AEEA-AEEA-γGlu-C20 diacid])LEAGPSSGAPPPS-NH2)
Ki (human GcgR): 0.957 µM | EC50 [1]: > 5000 nM | EC50 [2]: > 5000 nM

CC[C@H](C)[C@H](NC(=O)[C@H](CCCCN)NC(=O)[C@H](CC(=O)O)NC(=O)[C@H](CC(C)C)NC(=O)[C@H](CC(C)C)NC(=O)[C@@H](NC(=O)[C@H](CO)NC(=O)[C@H](Cc1ccc(O)cc1)NC(=O)[C@H](CC(=O)O)NC(=O)[C@H](CO)NC(=O)[C@@H](NC(=O)[C@H](Cc1ccccc1)NC(=O)[C@@H](NC(=O)CNC(=O)[C@H](CCC(=O)O)NC(=O)[C@@H](C)NC(=O)[C@@H](N)Cc1ccc(O)cc1)[C@@H](C)O)[C@@H](C)CC)[C@@H](C)CC)C(=O)N[C@@H](C)C(=O)N[C@@H](CCC(N)=O)C(=O)NC(C)(C)C(=O)N[C@@H](CC(=O)O)C(=O)N[C@@H](Cc1ccccc1)C(=O)N[C@H](C(=O)N[C@@H](CC(N)=O)C(=O)N[C@@H](Cc1c[nH]c2ccccc12)C(=O)N[C@@H](CCCCNC(=O)COCCOCCNC(=O)COCCOCCNC(=O)CC[C@H](NC(=O)CCCCCCCCCCCCCCCCC(=O)O)C(=O)O)C(=O)N[C@@H](CC(C)C)C(=O)N[C@@H](C)C(=O)N[C@@H](CCC(N)=O)C(=O)NCC(=O)N1CCC[C@H]1C(=O)N[C@@H](CO)C(=O)N[C@@H](CO)C(=O)NCC(=O)N[C@@H](C)C(=O)N1CCC[C@H]1C(=O)N1CCC[C@H]1C(=O)N1CCC[C@H]1C(=O)N[C@@H](CO)C(N)=O)C(C)C [Example 93] (H-Y[dA]EGTFISDYSILLDKIAQ[Aib]DFVNWK([AEEA-AEEA-γGlu-C18 diacid])LAQGPSSGAPPPS-NH2)
Ki (human GcgR): > 0.959 µM | EC50 [1]: 884 nM | EC50 [2]: > 5000 nM

CC[C@H](C)[C@H](NC(=O)[C@H](CO)NC(=O)[C@H](Cc1ccc(O)cc1)NC(=O)[C@H](CC(=O)O)NC(=O)[C@H](CO)NC(=O)[C@@H](NC(=O)[C@](C)(CC)NC(=O)[C@@H](NC(=O)CNC(=O)[C@H](CCC(=O)O)NC(=O)C(C)(C)NC(=O)[C@@H](N)Cc1ccc(O)cc1)[C@@H](C)O)[C@@H](C)CC)C(=O)N[C@@](C)(CC(C)C)C(=O)N[C@@H](CC(C)C)C(=O)N[C@@H](CC(=O)O)C(=O)N[C@@H](CCCCN)C(=O)N[C@@H](CCCCNC(=O)COCCOCCNC(=O)COCCOCCNC(=O)CC[C@H](NC(=O)CCCCCCCCCCCCCCCCCCC(=O)O)C(=O)O)C(=O)N[C@@H](Cc1c[nH]cn1)C(=O)N[C@@H](CCC(N)=O)C(=O)NC(C)(C)C(=O)N[C@@H](CC(=O)O)C(=O)N[C@@H](Cc1ccccc1)C(=O)N[C@H](C(=O)N[C@@H](CCC(=O)O)C(=O)N[C@@H](Cc1ccncc1)C(=O)N[C@@H](CC(C)C)C(=O)N[C@@H](CC(C)C)C(=O)N[C@@H](CCC(=O)O)C(=O)N[C@@H](C)C(=O)NCC(=O)N1CCC[C@H]1C(=O)N[C@@H](CO)C(=O)N[C@@H](CO)C(=O)NCC(=O)N[C@@H](C)C(=O)N1CCC[C@H]1C(=O)N1CCC[C@H]1C(=O)N1CCC[C@H]1C(=O)N[C@@H](CO)C(N)=O)C(C)C [Example 88] (H-Y[Aib]EGT[Iva]ISDYSI[αMeL]LDKK([AEEA-AEEA-γGlu-C20 diacid])HQ[Aib]DFVE[4Pal]LLEAGPSSGAPPPS-NH2)
Ki (human GcgR): 0.788 µM | EC50 [1]: > 5000 nM | EC50 [2]: 1670 nM

CC[C@H](C)[C@H](NC(=O)[C@H](CO)NC(=O)[C@H](Cc1ccc(O)cc1)NC(=O)[C@H](CC(=O)O)NC(=O)[C@H](CO)NC(=O)[C@@H](NC(=O)[C@H](Cc1ccccc1)NC(=O)[C@@H](NC(=O)CNC(=O)[C@H](CCC(=O)O)NC(=O)[C@@H](C)NC(=O)[C@@H](N)Cc1ccc(O)cc1)[C@@H](C)O)[C@@H](C)CC)C(=O)N[C@@H](CC(C)C)C(=O)N[C@@H](CC(C)C)C(=O)N[C@@H](CC(=O)O)C(=O)N[C@@H](CCCCN)C(=O)N[C@@H](CCCCNC(=O)COCCOCCNC(=O)COCCOCCNC(=O)CC[C@H](NC(=O)CCCCCCCCCCCCCCCCCCC(=O)O)C(=O)O)C(=O)N[C@@H](C)C(=O)N[C@@H](CCC(N)=O)C(=O)NC(C)(C)C(=O)N[C@@H](CC(=O)O)C(=O)N[C@@H](Cc1ccccc1)C(=O)N[C@H](C(=O)N[C@@H](CC(N)=O)C(=O)N[C@@H](Cc1c[nH]c2ccccc12)C(=O)N[C@@H](CC(C)C)C(=O)N[C@@H](CC(C)C)C(=O)N[C@@H](C)C(=O)N[C@@H](CCC(N)=O)C(=O)NCC(=O)N1CCC[C@H]1C(=O)N[C@@H](CO)C(=O)N[C@@H](CO)C(=O)NCC(=O)N[C@@H](C)C(=O)N1CCC[C@H]1C(=O)N1CCC[C@H]1C(=O)N1CCC[C@H]1C(=O)N[C@@H](CO)C(N)=O)C(C)C [Example 1]
Ki (human GcgR): 0.228 µM | EC50 [1]: > 5000 nM | EC50 [2]: 575 nM

CC[C@H](C)[C@H](NC(=O)[C@H](CO)NC(=O)[C@H](Cc1ccc(O)cc1)NC(=O)[C@H](CC(=O)O)NC(=O)[C@H](CO)NC(=O)[C@@H](NC(=O)[C@](C)(Cc1ccccc1F)NC(=O)[C@@H](NC(=O)CNC(=O)[C@H](CCC(=O)O)NC(=O)C(C)(C)NC(=O)[C@@H](N)Cc1ccc(O)cc1)[C@@H](C)O)[C@@H](C)CC)C(=O)N[C@@H](C)C(=O)N[C@@H](CC(C)C)C(=O)N[C@@H](CC(=O)O)C(=O)N[C@@H](CCCCN)C(=O)N[C@H](C(=O)N[C@@H](Cc1c[nH]cn1)C(=O)N[C@@H](CCC(N)=O)C(=O)NC(C)(C)C(=O)N[C@@H](CCC(=O)O)C(=O)N[C@@H](Cc1ccccc1)C(=O)N[C@H](C(=O)N[C@@H](CC(N)=O)C(=O)N[C@@H](Cc1ccc(O)cc1)C(=O)N[C@@H](CCCCNC(=O)COCCOCCNC(=O)COCCOCCNC(=O)CC[C@H](NC(=O)CCCCCCCCCCCCCCCCCCC(=O)O)C(=O)O)C(=O)N[C@@H](CC(C)C)C(=O)N[C@@H](C)C(=O)NCC(=O)NCC(=O)N1CCC[C@H]1C(=O)N[C@@H](CO)C(=O)N[C@@H](CO)C(=O)NCC(=O)N[C@@H](C)C(=O)N1CCC[C@H]1C(=O)N1CCC[C@H]1C(=O)N1CCC[C@H]1C(=O)N[C@@H](CO)C(N)=O)C(C)C)[C@@H](C)CC [Example 98] (H-Y[Aib]EGT[αMePhe(2-F)]ISDYSIALDKIHQ[Aib]EFVNYK([AEEA-AEEA-γGlu-C20 diacid])LAGGPSSGAPPPS-NH2)
Ki (human GcgR): 0.0384 µM | EC50 [1]: 649 nM | EC50 [2]: > 5000 nM
